This note sets out measurements from patent US12201745B2, “Vascular extracellular matrix hydrogel” (University of Pittsburgh—Of the Commonwealth System of …, priority 2016, dated 2025).

In test [1] the test system is Primary human adventitia-derived endothelial cells. The test can be described thus: Endothelial cell branching assay (tube-like structures on GFR-Matrigel). The format is cell-based. Conditions: 100 nM. The method, then: FIGS. 13A-13C. Effect of ECM bioscaffolds on network formation of tube-like structures in vitro. FIG. 13A—Human adventitia-derived endothelial cells were cultured on growth factor reduced-Matrigel substrates: (A) DMSO, 0.05% (v/v), (B) Digestion buffer (1% (w/v) Pepsin in 0.1 N HCl), (C) pAdv ECM, and (D) pSIS ECM. FGF2 inhibitor PD173074 (100 nM) was added to the culture medium of above treatments shown in parallel wells (E-H). A-H: One representative 10× field is shown, selected from one of three replicates of two independent experiments. All scale bars=50 μm for (A-H). Quantification of the number (FIG. 13B) and total length (FIG. 13C) of tube-like structures from 5×5 stitched fields captured at 10× for non-ECM-supplemented (open bars), pAdv (solid bars) and pSIS (gray bars) ECM-supplemented substrates in the absence and presence of PD173074. Bars represent mean of three assay replicates ±standard deviation. Images and graphs represent data from one of two independent experiments. *Significant from pepsin HCl, p<0.02; #Significant from pAdv ECM-treated cells in the absence of PD173074, p<0.03.
Endothelial Cell Branching Assay. […] Total number and length of tube-like structures were quantified using NIS Elements Software.

The subject of test [2] is chick chorioallantoic membrane (CAM). Put plainly: Chick chorioallantoic membrane (CAM) model of in vivo angiogenesis. As to conditions: 100 nM PD173074 with 250 μg/mL pAdv ECM bioscaffold in fibrin scaffold. On the procedure:
FIGS. 14A-14D. Effect of ECM bioscaffolds on angiogenesis in vivo. FIG. 14A) Representative bright field images of scaffolds before (Time 0) and after (72 hr) incubation on the chorioallantoic membrane (CAM) of the chick embryo. […] There was no appreciable angiogenic response detected around scaffolds loaded with digestion buffer (1% (w/v) pepsin in 0.1 N HCl) or DMSO. Addition of the FGF2 inhibitor PD173074 (100 nM) abrogated the angiogenic response to pAdv ECM. […] All scale bars for FIG. 14A=5 mm. FIG. 14B) Representative histological cross-sections of CAM assay scaffolds. The CAM vasculature was visualized using injected tomato lectin-Dylight® 650 (red) and nuclei are labeled with Hoechst dye (blue). A dashed white line denotes the scaffold/CAM interface. […] The maximum tested dose of pAdv ECM (500 μg/mL) inhibited invasion of blood vessels into the scaffold. […] All scale bars in FIG. 14B and FIG. 14C=[…] *Avascular zone comprised of lectin-negative cells. FIG. 14D). […] (*) avascular zone comprised of lectin-negative cells. All scale bars for FIG. 14D=20 μm.
Chick Chorioallantoic Membrane (CAM) Model of In Vivo Angiogenesis. […]

Turning to `CCN(CC)CCCCNc1ncc2cc(-c3cc(OC)cc(OC)c3)c(NC(=O)NC(C)(C)C)nc2n1` [PD173074], the “effect on tube-like formation on non-ECM substrates” value in test [1] (Matrigel alone or pepsin HCl-supplemented substrates) is recorded as “did not affect tube-like formation”. In addition, the “effect on tube-like formation on ECM-supplemented substrates” value in test [1] (pAdv and pSIS ECM bioscaffold-supplemented substrates vs absence of inhibitor) is given as “decreased the tube-like formation”. The “effect on pAdv ECM bioscaffold-induced angiogenesis” value in test [2] is listed as “completely inhibited”.
